{"source": "patent US20090137652A1", "about": "“METHODS FOR NEUROPROTECTION” (priority 2005, published 2009)", "key": {"[1]": {"test_system": "rats subjected to Li-pilo induced SE", "experiment": "Quantification of cell densities after lithium-pilocarpine SE (Example 1)", "format": "in vivo, rat", "details": "for cell loss, CA1 pyramidal layer: significant vs pilo-DZP", "protocol": "The effects of increasing doses of the test compound were studied on 3 groups of rats. The animals of the first group received 10 mg/kg of the test compound, i.p., 1 h after the onset of SE (pilo-TC10) while the animals of groups 2 and 3 received 30 and 60 mg/kg of the test compound (pilo-TC30 and pilo-TC60), respectively.\nAnother group was injected with 2 mg/kg diazepam (DZP, i.m.) at 1 h after the onset of SE. This is a standard treatment to improve animals survival after SE (pilo-DZP). The control group received saline instead of pilocarpine and the test compound (saline-saline). The pilo-test compound rats surviving SE were then injected about 10 h after the first test compound injection with a second i.p. injection of the same dose of the test compound and were maintained under a twice daily treatment with the test compound for 6 additional days. Pilo-DZP received a second injection of 1 mg/kg DZP on the day of SE at about 10 h after the first one. Thereafter, Pilo-DZP and saline-saline rats received twice daily an equivalent volume of saline.\nQuantification of cell densities was performed at […] after SE on 8 pilo-DZP, 8 pilo-TC10, 7 pilo-TC30, 7 pilo-TC60, and 6 saline-saline rats. At 14 days after SE, animals were deeply anesthetized with […] pentobarbital (Dolethal®, Vetoquinol, Lure, France. Brains were then removed and frozen. Serial 20 μm slices were cut in a cryostat, air-dried during several days before thionine staining.\nQuantification of cell densities was performed with a 10×10 boxes 1 cm^2 microscopic grid on coronal sections according to the stereotaxic coordinates of the rat brain atlas (Paxinos and Watson, 1986, The Rat brain in Stereotaxic Coordinates, 2nd ed. Academic Press, San Diego). Cell counts were performed twice in a blind manner and were the average of at least 3 values from 2 adjacent sections in each individual animal. Counts involved only cells larger than 10 μm, smaller ones being considered as glial cells.\nFor the comparison of the characteristics of SE in pilo-saline and pilo-test compound animals, a non-paired Student's t-test was used. The comparison between the number of rats seizing in both groups was performed by means of a Chi square test. For neuronal damage, statistical analysis between groups was performed using ANOVA followed by a Fisher's test for multiple comparisons using the Statview software (Fisher R A, 1946a, Statistical Methods for Research Workers (10th edition) Oliver & Boyd, Edinburgh; Fisher R A, 1946b, The Design of Experiments (4th edition) Oliver & Boyd, Edinburgh)"}, "[2]": {"test_system": "rats subjected to li-pilo SE", "experiment": "Quantification of cell densities 14 days after lithium-pilocarpine SE (Example 2)", "format": "in vivo, rat", "details": "14 days after SE", "protocol": "All rats received lithium chloride (3 meq/kg, i.p., Sigma, St Louis, Mo., U.S.A.) and about 20 h later, all animals received also methylscopolamine bromide (1 mg/kg, s.c., Sigma) that was administered to limit the peripheral effects of the convulsant. SE was induced by injecting pilocarpine hydrochloride (25 mg/kg, s.c., Sigma) 30 min after methylscopolamine. The effects of increasing doses of TC (RWJ) were studied in 5 groups of rats. […] The control group received vehicle instead of pilocarpine and TC.\nAt the moment, neuronal counting is still in progress in the second group of animals studied for epileptogenesis and long-term counting and the data concerning that part of the study will not be included in the present report. For neuronal counting, animals were deeply anesthetized with […] pentobarbital (Dolethal®, Vetoquinol, Lure, France). Brains were then removed and frozen. Serial 20 μm slices were cut in a cryostat, air-dried during several days before thionine staining. […] The grid of counting was placed on a well defined area of the cerebral structure of interest and counting was carried out with a microscopic enlargement of 200- or 400-fold defined for each single cerebral structure. Cell counts were performed twice on each side of three adjacent sections for each region by a single observer unaware of the animal's treatment. The number of cells obtained in the 12 counted fields in each cerebral structure was averaged. This procedure was used to minimize the potential errors that could result from double counting leading to overestimation of cell numbers. […] Counts involved only neurons with cell bodies larger than 10 μm. Cells with small cell bodies were considered as glial cells and were not counted.\nFor neuronal damage and epileptogenesis, statistical analysis between groups was performed by means of a one-way analysis of variance followed by a post-hoc Dunnett or Fisher test using the Statistica software."}}, "data": [{"smiles": "NC(=O)OC[C@@H](O)c1ccccc1Cl", "note": "[Formula 7]", "values": [{"measurement": "neuroprotection compared to pilo-DZP rats, ventral entorhinal cortex layers III-IV", "setting": "[1]; TC60 (60 mg/kg)", "result": 31, "unit": "%"}, {"measurement": "reduction of neuronal damage recorded in pilo-DZP rats, piriform cortex layer II", "setting": "[1]; TC60 (60 mg/kg)", "result": 41, "unit": "%"}, {"measurement": "reduction of neuronal damage recorded in pilo-DZP rats, piriform cortex layers III-IV", "setting": "[1]; TC60 (60 mg/kg)", "result": 44, "unit": "%"}, {"measurement": "more damage (worsening of cell loss) compared with pilo-DZP rats, dorsal entorhinal cortex layers III-IV", "setting": "[1]; pilo-TC10 (10 mg/kg)", "result": 28, "unit": "%"}, {"measurement": "more damage (worsening of cell loss) compared with pilo-DZP rats, ventral entorhinal cortex layers III-IV", "setting": "[1]; pilo-TC10 (10 mg/kg)", "result": 35, "unit": "%"}, {"measurement": "cell loss, CA1 pyramidal layer", "setting": "[1]; pilo-TC30 (30 mg/kg)", "result": 35, "unit": "%"}, {"measurement": "cell loss, CA1 pyramidal layer", "setting": "[1]; pilo-TC60 (60 mg/kg)", "result": 16, "unit": "%"}, {"measurement": "cell loss, hilus of the dentate gyrus", "setting": "[1]; pilo-test compound animals (10, 30, 60 mg/kg)", "result": "69-72%"}, {"measurement": "reduction of neuronal damage, lateral thalamic nucleus", "setting": "[1]; test compound 60 mg/kg", "result": 65, "unit": "%"}, {"measurement": "reduction of neuronal damage, mediodorsal thalamic nucleus", "setting": "[1]; test compound 60 mg/kg", "result": 42, "unit": "%"}, {"measurement": "protection in CA3b", "setting": "[1]; test compound 60 mg/kg vs pilo-DZP", "result": "significantly neuroprotective"}, {"measurement": "protection in the CA3a area", "setting": "[1]; test compound 10, 30, 60 mg/kg vs pilo-DZP", "result": "did not afford any protection"}, {"measurement": "neuronal drop out, layer II of the dorsal piriform cortex", "setting": "[2]; TC 60 mg/kg, significant vs DZP", "result": 25, "unit": "%"}, {"measurement": "damage remaining, ventral entorhinal cortex layer II", "setting": "[2]; TC 90 mg/kg", "result": 4, "unit": "%"}, {"measurement": "damage remaining, ventral entorhinal cortex layers III/IV", "setting": "[2]; TC 90 mg/kg", "result": 17, "unit": "%"}, {"measurement": "neuronal density as % of control levels, piriform cortex", "setting": "[2]; TC 120 mg/kg", "result": "78-96%"}, {"measurement": "neurons surviving, all parts of the entorhinal cortex", "setting": "[2]; TC 120 mg/kg", "result": "85-94%"}, {"measurement": "cell loss, CA1 pyramidal cell layer", "setting": "[2]; TC30, 60 or 90 rats, significant vs DZP", "result": "36-47%"}, {"measurement": "neuronal loss, hilus of the dentate gyrus", "setting": "[2]; TC120 group, not significant vs DZP", "result": 53, "unit": "%"}, {"measurement": "cell loss, CA1 pyramidal cell layer", "setting": "[2]; TC120 group, significant vs DZP", "result": 12, "unit": "%"}, {"measurement": "neuronal drop out, thalamic nuclei", "setting": "[2]; TC120 rats", "result": "4-19%"}, {"measurement": "number of neurons as % of the control level, all amygdala nuclei", "setting": "[2]; TC highest dose (120 mg/kg)", "result": "86-99%"}, {"measurement": "number of neuronal cell bodies, Amygdala, Basolateral", "setting": "[2]; pilo-TC30 (30 mg/kg), n = 8", "result": "27.3 ± 4.9**°"}, {"measurement": "number of neuronal cell bodies, Amygdala, Medial, dorsal anterior", "setting": "[2]; pilo-TC30 (30 mg/kg), n = 8", "result": "46.8 ± 5.0"}, {"measurement": "number of neuronal cell bodies, Amygdala, Medial, ventral posterior", "setting": "[2]; pilo-TC30 (30 mg/kg), n = 8", "result": "22.3 ± 1.8"}, {"measurement": "number of neuronal cell bodies, Cerebral cortex, Entorhinal, layer II, dorsal", "setting": "[2]; pilo-TC30 (30 mg/kg), n = 8", "result": "23.4 ± 0.6"}, {"measurement": "number of neuronal cell bodies, Cerebral cortex, Entorhinal, layer II, ventral", "setting": "[2]; pilo-TC30 (30 mg/kg), n = 8", "result": "22.7 ± 0.9"}, {"measurement": "number of neuronal cell bodies, Cerebral cortex, Entorhinal, layer III/IV, dorsal", "setting": "[2]; pilo-TC30 (30 mg/kg), n = 8", "result": "22.3 ± 0.5"}, {"measurement": "number of neuronal cell bodies, Cerebral cortex, Entorhinal, layer III/IV, ventral", "setting": "[2]; pilo-TC30 (30 mg/kg), n = 8", "result": "13.2 ± 1.9"}, {"measurement": "number of neuronal cell bodies, Cerebral cortex, Piriform, layer II, dorsal", "setting": "[2]; pilo-TC30 (30 mg/kg), n = 8", "result": "15.7 ± 2.9"}, {"measurement": "number of neuronal cell bodies, Cerebral cortex, Piriform, layer II, ventral", "setting": "[2]; pilo-TC30 (30 mg/kg), n = 8", "result": "7.2 ± 3.8"}, {"measurement": "number of neuronal cell bodies, Cerebral cortex, Piriform, layer III", "setting": "[2]; pilo-TC30 (30 mg/kg), n = 8", "result": "1.8 ± 1.8"}, {"measurement": "number of neuronal cell bodies, Hippocampus, CA1 area", "setting": "[2]; pilo-TC30 (30 mg/kg), n = 8", "result": "39.3 ± 4.4**°°"}, {"measurement": "number of neuronal cell bodies, Hippocampus, CA3 area", "setting": "[2]; pilo-TC30 (30 mg/kg), n = 8", "result": "35.7 ± 1.8"}, {"measurement": "number of neuronal cell bodies, Hippocampus, Hilus", "setting": "[2]; pilo-TC30 (30 mg/kg), n = 8", "result": "33.0 ± 3.2"}, {"measurement": "number of neuronal cell bodies, Thalamus, Central medial", "setting": "[2]; pilo-TC30 (30 mg/kg), n = 8", "result": "75.6 ± 7.7"}, {"measurement": "number of neuronal cell bodies, Thalamus, Dorsolateral, medial, dorsal", "setting": "[2]; pilo-TC30 (30 mg/kg), n = 8", "result": "64.2 ± 9.3**°°"}, {"measurement": "number of neuronal cell bodies, Thalamus, Dorsolateral, ventral lateral", "setting": "[2]; pilo-TC30 (30 mg/kg), n = 8", "result": "8.8 ± 2.8"}, {"measurement": "number of neuronal cell bodies, Thalamus, Mediodorsal central", "setting": "[2]; pilo-TC30 (30 mg/kg), n = 8", "result": "26.9 ± 0.6"}, {"measurement": "number of neuronal cell bodies, Thalamus, Mediodorsal lateral", "setting": "[2]; pilo-TC30 (30 mg/kg), n = 8", "result": "20.5 ± 0.7"}, {"measurement": "number of neuronal cell bodies, Thalamus, Mediodorsal medial", "setting": "[2]; pilo-TC30 (30 mg/kg), n = 8", "result": "11.5 ± 2.5"}, {"measurement": "number of neuronal cell bodies, Amygdala, Basolateral", "setting": "[2]; pilo-TC60 (60 mg/kg), n = 11", "result": "27.8 ± 4.3**°°"}, {"measurement": "number of neuronal cell bodies, Amygdala, Medial, dorsal anterior", "setting": "[2]; pilo-TC60 (60 mg/kg), n = 11", "result": "58.4 ± 2.8**°"}, {"measurement": "number of neuronal cell bodies, Amygdala, Medial, ventral posterior", "setting": "[2]; pilo-TC60 (60 mg/kg), n = 11", "result": "26.2 ± 2.9"}, {"measurement": "number of neuronal cell bodies, Cerebral cortex, Entorhinal, layer II, dorsal", "setting": "[2]; pilo-TC60 (60 mg/kg), n = 11", "result": "23.9 ± 0.5"}, {"measurement": "number of neuronal cell bodies, Cerebral cortex, Entorhinal, layer II, ventral", "setting": "[2]; pilo-TC60 (60 mg/kg), n = 11", "result": "23.3 ± 0.8"}, {"measurement": "number of neuronal cell bodies, Cerebral cortex, Entorhinal, layer III/IV, dorsal", "setting": "[2]; pilo-TC60 (60 mg/kg), n = 11", "result": "23.2 ± 0.8"}, {"measurement": "number of neuronal cell bodies, Cerebral cortex, Entorhinal, layer III/IV, ventral", "setting": "[2]; pilo-TC60 (60 mg/kg), n = 11", "result": "16.5 ± 2.2"}, {"measurement": "number of neuronal cell bodies, Cerebral cortex, Piriform, layer II, dorsal", "setting": "[2]; pilo-TC60 (60 mg/kg), n = 11", "result": "27.5 ± 2.8**°°"}]}]}
